Source: ChEMBL document CHEMBL1140652 (Bioorg Med Chem Lett, 2007)
Values after ≈ are worked out from the molar mass of the structure shown.

How the values were obtained:
Escherichia coli = experiment: microbe, parasite or virus in culture
Description: Inhibition of transcription and translation activity in Escherichia coli by luciferase reporter assay

Staphylococcus aureus = experiment: microbe, parasite or virus in culture; details: SA1
Description: Antibacterial activity against Staphylococcus aureus UC76 SA1

Streptococcus pneumoniae = experiment: microbe, parasite or virus in culture; details: SV1
Description: Antibacterial activity against Streptococcus pneumoniae SV1 SP3

Enterococcus faecalis = experiment: microbe, parasite or virus in culture
Description: Antibacterial activity against Enterococcus faecalis MGH2 EF1-1

Haemophilus influenzae = experiment: microbe, parasite or virus in culture
Description: Antibacterial activity against Haemophilus influenzae HI3542

Moraxella catarrhalis = experiment: microbe, parasite or virus in culture
Description: Antibacterial activity against Moraxella catarrhalis BC-3531

physchem = details: potassium phosphate buffer, pH 6.5
Description: Aqueous solubility in potassium phosphate buffer at pH 6.5 by laser nephrometry

Row | Compound | IC50 (Escherichia coli) [µM] | MIC (Staphylococcus aureus) [mg/L] | MIC (Streptococcus pneumoniae) [mg/L] | MIC (Enterococcus faecalis) [mg/L] | MIC (Haemophilus influenzae) [mg/L] | MIC (Moraxella catarrhalis) [mg/L] | solubility kinetic (physchem) [mg/mL]
1 | CC(=O)NC[C@H]1CN(c2ccc3c(c2)CCCc2c(NCc4ccccc4)n[nH]c2-3)C(=O)O1 | 2 | 2 (≈ 4.49 µM) | 1 (≈ 2.24 µM) | 1 (≈ 2.24 µM) | 8 (≈ 18 µM) | 4 (≈ 8.98 µM) | –
2 | COc1ccc(CNc2n[nH]c3c2CCCc2cc(N4C[C@H](CNC(C)=O)OC4=O)ccc2-3)cc1 | 2.2 | 1 (≈ 2.1 µM) | 0.5 (≈ 1.05 µM) | 1 (≈ 2.1 µM) | 8 (≈ 16.8 µM) | 4 (≈ 8.41 µM) | –
3 | CC(=O)NC[C@H]1CN(c2ccc3c(c2)CCCc2c(NCCc4ccccn4)n[nH]c2-3)C(=O)O1 | 1.7 | 8 (≈ 17.4 µM) | 0.5 (≈ 1.09 µM) | 1 (≈ 2.17 µM) | 8 (≈ 17.4 µM) | 8 (≈ 17.4 µM) | –
4 | CNc1n[nH]c2c1CCCc1cc(N3C[C@H](CNC(C)=O)OC3=O)ccc1-2 | 1 | 2 (≈ 5.41 µM) | 0.5 (≈ 1.35 µM) | 1 (≈ 2.71 µM) | 4 (≈ 10.8 µM) | 2 (≈ 5.41 µM) | > 0.07
5 | CC(=O)NC[C@H]1CN(c2ccc3c(c2)CCCc2c(N)n[nH]c2-3)C(=O)O1 | 1.2 | 4 (≈ 11.3 µM) | 0.5 (≈ 1.41 µM) | 2 (≈ 5.63 µM) | 4 (≈ 11.3 µM) | 2 (≈ 5.63 µM) | –
6 | CC(=O)NC[C@H]1CN(c2ccc3c(c2)CCCc2c(NC(C)C)n[nH]c2-3)C(=O)O1 | 2.2 | 4 (≈ 10.1 µM) | 0.5 (≈ 1.26 µM) | 2 (≈ 5.03 µM) | 8 (≈ 20.1 µM) | 8 (≈ 20.1 µM) | –
7 | CC(=O)NC[C@H]1CN(c2ccc3c(c2)CCCc2c(NCCc4ccc(O)cc4)n[nH]c2-3)C(=O)O1 | 2.1 | 2 (≈ 4.21 µM) | 0.5 (≈ 1.05 µM) | 1 (≈ 2.1 µM) | 4 (≈ 8.41 µM) | 2 (≈ 4.21 µM) | –
8 | CC(=O)NC[C@H]1CN(c2ccc3c(c2)CCCc2cn[nH]c2-3)C(=O)O1 | 0.45 | 0.5 (≈ 1.47 µM) | 0.25 (≈ 0.734 µM) | 0.25 (≈ 0.734 µM) | 2 (≈ 5.88 µM) | 2 (≈ 5.88 µM) | 0.014 (≈ 41.1 µM)
9 | CC(=O)NC[C@H]1CN(c2ccc3c(c2)CCCc2c(NC(=O)C(O)CO)n[nH]c2-3)C(=O)O1 (some centres undefined) | 0.78 | 16 (≈ 36.1 µM) | 2 (≈ 4.51 µM) | 16 (≈ 36.1 µM) | 32 (≈ 72.2 µM) | 32 (≈ 72.2 µM) | 0.046 (≈ 104 µM)
10 | CCN(CC)CCCNc1n[nH]c2c1CCCc1cc(N3C[C@H](CNC(C)=O)OC3=O)ccc1-2 | 13 | 64 (≈ 137 µM) | 4 (≈ 8.54 µM) | 32 (≈ 68.3 µM) | 32 (≈ 68.3 µM) | 32 (≈ 68.3 µM) | –
11 | CC(=O)NC[C@H]1CN(c2ccc3c(c2)CCCc2c(NC(=O)CO)n[nH]c2-3)C(=O)O1 | 1.3 | 16 (≈ 38.7 µM) | 4 (≈ 9.68 µM) | 4 (≈ 9.68 µM) | 16 (≈ 38.7 µM) | 16 (≈ 38.7 µM) | –
12 | CC(=O)NC[C@H]1CN(c2ccc3c(c2)CCCc2c(Nc4ccccc4)n[nH]c2-3)C(=O)O1 | – | 1 (≈ 2.32 µM) | 0.5 (≈ 1.16 µM) | 0.5 (≈ 1.16 µM) | 4 (≈ 9.27 µM) | 2 (≈ 4.64 µM) | –

Second part, the compound after the results:

Row | IC50 (Escherichia coli) [µM] | MIC (Staphylococcus aureus) [mg/L] | MIC (Streptococcus pneumoniae) [mg/L] | MIC (Enterococcus faecalis) [mg/L] | MIC (Haemophilus influenzae) [mg/L] | MIC (Moraxella catarrhalis) [mg/L] | solubility kinetic (physchem) [mg/mL] | Compound
13 | 2.6 | 2 (≈ 4.84 µM) | 1 (≈ 2.42 µM) | 2 (≈ 4.84 µM) | 1 (≈ 2.42 µM) | 8 (≈ 19.3 µM) | – | COCCNc1n[nH]c2c1CCCc1cc(N3C[C@H](CNC(C)=O)OC3=O)ccc1-2
14 | 0.45 | 32 (≈ 77.6 µM) | 4 (≈ 9.7 µM) | 8 (≈ 19.4 µM) | > 64 | 32 (≈ 77.6 µM) | > 0.07 | CC(=O)NC[C@H]1CN(c2ccc3c(c2)CCCc2c(NCCCN)n[nH]c2-3)C(=O)O1
15 | 0.8 | 32 (≈ 80.3 µM) | 4 (≈ 10 µM) | 16 (≈ 40.2 µM) | 16 (≈ 40.2 µM) | 4 (≈ 10 µM) | > 0.07 | CC(=O)NC[C@H]1CN(c2ccc3c(c2)CCCc2c(NCCN)n[nH]c2-3)C(=O)O1
16 | 1.9 | 16 (≈ 34.1 µM) | 2 (≈ 4.27 µM) | 8 (≈ 17.1 µM) | 8 (≈ 17.1 µM) | 16 (≈ 34.1 µM) | – | CC(=O)NC[C@H]1CN(c2ccc3c(c2)CCCc2c(NCCN4CCOCC4)n[nH]c2-3)C(=O)O1
17 | 2.5 | 2 (≈ 5.03 µM) | 0.25 (≈ 0.629 µM) | 1 (≈ 2.52 µM) | 4 (≈ 10.1 µM) | 8 (≈ 20.1 µM) | – | CCCNc1n[nH]c2c1CCCc1cc(N3C[C@H](CNC(C)=O)OC3=O)ccc1-2
18 | 2.9 | 4 (≈ 9.36 µM) | 1 (≈ 2.34 µM) | 4 (≈ 9.36 µM) | 16 (≈ 37.4 µM) | 16 (≈ 37.4 µM) | – | COCCCNc1n[nH]c2c1CCCc1cc(N3C[C@H](CNC(C)=O)OC3=O)ccc1-2
19 | 1.3 | 1 (≈ 2.61 µM) | 0.25 (≈ 0.652 µM) | 1 (≈ 2.61 µM) | 4 (≈ 10.4 µM) | 4 (≈ 10.4 µM) | – | CCNc1n[nH]c2c1CCCc1cc(N3C[C@H](CNC(C)=O)OC3=O)ccc1-2
20 | 1.8 | 8 (≈ 19.3 µM) | 4 (≈ 9.67 µM) | 8 (≈ 19.3 µM) | 16 (≈ 38.7 µM) | 32 (≈ 77.4 µM) | – | CC(=O)NC[C@H]1CN(c2ccc3c(c2)CCCc2c(NCCCO)n[nH]c2-3)C(=O)O1
